Experimental data published in publication PMC6832239, “The Effects of a Novel Series of KTTKS Analogues on Cytotoxicity and Proteolytic Activity” (Molecules, 2019).
Entries after “also recorded” stand apart in the source; their conditions may differ. Like-named read-outs stand apart in the source and are kept apart here. Residues, ends and D or L forms follow the SMILES beside them.

Key:
plasmin [1] = biological target: T1, plasmin (Homo sapiens, UniProt P00747); test: Amidolytic activity of plasmin (chromogenic substrate H-D-Val-Leu-Lys-pNA); assay type: biochemical
T1 construct: purchased Chromogenix (Milano, Italy)
T1 sequence (P00747 581-810 limits assumed): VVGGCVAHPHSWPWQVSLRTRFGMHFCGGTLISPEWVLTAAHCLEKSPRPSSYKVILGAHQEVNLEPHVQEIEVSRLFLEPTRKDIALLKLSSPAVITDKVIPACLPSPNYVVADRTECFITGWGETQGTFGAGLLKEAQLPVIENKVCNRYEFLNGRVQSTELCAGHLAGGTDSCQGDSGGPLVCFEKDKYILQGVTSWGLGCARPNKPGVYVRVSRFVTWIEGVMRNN
T1 sequence (P00747 97-580 partner limits assumed): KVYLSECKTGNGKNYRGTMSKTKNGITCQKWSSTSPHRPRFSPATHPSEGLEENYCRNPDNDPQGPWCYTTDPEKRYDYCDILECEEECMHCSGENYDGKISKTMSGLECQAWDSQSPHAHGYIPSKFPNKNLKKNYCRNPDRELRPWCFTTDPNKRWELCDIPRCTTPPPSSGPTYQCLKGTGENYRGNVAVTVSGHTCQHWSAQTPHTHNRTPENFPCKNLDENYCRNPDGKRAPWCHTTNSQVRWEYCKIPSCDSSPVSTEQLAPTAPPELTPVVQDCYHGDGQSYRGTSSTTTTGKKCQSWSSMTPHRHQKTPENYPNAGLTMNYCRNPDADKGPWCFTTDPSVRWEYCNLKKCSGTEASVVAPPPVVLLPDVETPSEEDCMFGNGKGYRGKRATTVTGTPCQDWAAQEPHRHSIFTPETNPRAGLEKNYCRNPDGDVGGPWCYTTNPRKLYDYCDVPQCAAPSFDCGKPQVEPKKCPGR
Description: (§1) The determination of amidolytic activity was performed as previously described by Okada. A detailed description of the method is given below: 0.2 mL of the examined peptides (0.15 M NaCl as contro), a buffer, and 0.1 mL of enzyme solution were mixed. The final peptide concentrations were: 0.2 mM, 2 mM, and 20 mM. The mixture was incubated at 37 °C for 3 min; then the synthetic substrate solution was added in the same buffer. After 20 min of incubation, the reaction was stopped by adding 0.1 mL of 50% acetic acid and the absorbance of the released p-nitroaniline was measured at 405 nm. The mean values from three independent experiments done in duplicate are presented. A method error of 5% was adopted as statistical error. IC50 value was considered as the concentration of inhibitor that reduces absorbance by 50%, compared with absorbance measured under the same conditions without an inhibitor. IC50 was calculated mathematically by extrapolation using a linear plot. IC50 values are presented in Table 1 and Table 2, and graphically in Figure 1.
(§2) The buffers and the enzyme solutions included: • Tris buffer—0.6 mL (pH 8.8), enzyme: urokinase (50 units/mL), synthetic substrate: pyro-Glu-Gly-Arg-pNA·HCl (0.1 mL, 3 mM); • Tris buffer—0.5 mL (pH 8.4), enzyme: thrombin (1 units/mL), synthetic substrate: H-D-Phe-Pip-Arg-pNA (0.2 mL, 0.75 mM); • Tris buffer—0.5 mL (pH 7.4), enzyme: plasmin (0.4 units/mL), synthetic substrate: H-D-Val-Leu-Lys-pNA (0.2 mL, 3 mM); • Borate buffer—0.5 mL (pH 7.5), enzyme: trypsin (0.4 units/mL), synthetic substrate: Bzl-L-Arg-pNA·HCl (0.2 mL, 8 mM); • Tris buffer—0.6 mL (pH 9.0), enzyme: kallikrein (3 units/mL), synthetic substrate: H-D-Val-Leu-Arg-pNA·2HCl (0.1 mL, 75 mM); • Tris buffer—0.6 mL (pH 8.4), enzyme: t-PA ([…]), synthetic substrate: H-D-Ile-Pro-Arg-pNA (0.1 mL, 10 mM) • Tris buffer—0.6 mL (pH 9.0), enzyme: chymotrypsin (0.4 units/mL), synthetic substrate: Suc-Phe-pNA (0.2 mL, 8 mM)

collagen biosynthesis = tested on: collagen biosynthesis; parameters: method as in PMID 24090916; details: single concentration of 0.5 mM; cited from earlier work
[2] = tested on: primary dermal fibroblasts cells; test: Viability of fibroblast cells, MTT assay; assay type: cell-based, Human; details: MTT, 1-100 μM, 24 h
Description: (§3) Viability of fibroblast cells was examined with the use of the MTT assay. MTT, a yellow tetrazole, is reduced to purple formazan only in living cells. Absorbance of the coloured solution was measured by a spectrophotometer.
(§4) These studies were performed on primary dermal fibroblasts cells. The cells were maintained in DMEM supplemented with 10% fetal bovine serum (FBS), 2 mM glutamin, 50 U/mL penicillin and […] streptomycin at 37 °C in a 5% CO2 incubator. For experiments, cells cultures were plated at a density of 1 × 10^6/well in six-well culture plates (Costar, St. Louis, MO, USA) in 2 mL of growth medium. Cells reached about 80% of confluency at day 2 were used for the assays.
(§5) Toxicity of the tested substances was determined using an MTT [3-(4,5-dimethylthiazol-2-yl)-2,5-diphenyltetrazolium bromide)] assay. Palmitoyl and lipoyl peptides were dissolved in DMSO (dimethyl sulfoxide), the other peptides in DMEM, and added to the cell culture medium. Simultaneously, the same concentrations of DMSO without peptides were added to cells, serving as controls. The final peptide concentrations were: 1 μM, 10 μM, and 100 μM. After 24 h incubation, the cells cultured with the tested compounds were washed with phosphate-buffered saline (PBS) and then incubated for 4 h in 2 mL of MTT solution (5 mg/mL). After removing the medium, the cells were lysed in 200 μL of DMSO with 20 μL of Sorensen’s buffer (pH 10.5, 0.1 mol/L glycine with 0.1 mol/L NaCl). The absorbance of converted dye in living cells was measured at a wavelength of 570 nm. The mean values ± SD from three independent experiments done in duplicate are presented.

[3] = Viability of fibroblast cells, MTT assay; assay type: cell-based, Human; details: human, primary dermal fibroblast cells, 24 h, MTT, ± 2, read-out: Viability of fibroblast cells
Description: as §3, §4, §5

thrombin = biological target: T2, thrombin (Bos taurus, UniProt P00735); test: Amidolytic activity of thrombin (chromogenic substrate H-D-Phe-Pip-Arg-pNA); assay type: biochemical; details: amidolytic activity; Tris pH 8.4, 37 °C; IC50 by extrapolation using a linear plot; error 5%; read-out: IC50 Thrombin
T2 construct: purchased Lubelska Wytwórnia Szczepionek (Lublin, Poland)
Description: The determination of amidolytic activity was performed as previously described by Okada. A detailed description of the method is given below: 0.2 mL of the examined peptides (0.15 M NaCl as contro), a buffer, and 0.1 mL of enzyme solution were mixed. The final peptide concentrations were: 0.2 mM, 2 mM, and 20 mM. The mixture was incubated at 37 °C for 3 min; then the synthetic substrate solution was added in the same buffer. […] The mean values from three independent experiments done in duplicate are presented. A method error of 5% was adopted as statistical error. […] IC50 was calculated mathematically by extrapolation using a linear plot.

plasmin [4] = biological target: T1, plasmin; parameters: method as in PMID 27434836; details: competitive and reversible inhibitor; cited from earlier work
neutrophil elastase = tested on: neutrophil elastase; parameters: method as in PMID 27434836; details: selectivity; cited from earlier work
tryptase = tested on: tryptase; parameters: method as in PMID 27434836; details: selectivity; cited from earlier work
urokinase [5] = biological target: T3, urokinase (Homo sapiens, UniProt P00749); parameters: method as in PMID 27434836; details: competitive and reversible inhibitor; cited from earlier work
T3 construct: purchased Sigma (Schnelldorf, Germany)

kallikrein 5 = tested on: kallikrein 5; parameters: method as in PMID 27434836; details: selectivity; cited from earlier work
kallikrein 7 = tested on: kallikrein 7; parameters: method as in PMID 27434836; details: selectivity; cited from earlier work
face wrinkles = tested on: face wrinkles; parameters: method as in PMID 19570099; details: oil-in-water cream twice daily for 8 and 12 weeks; cited from earlier work
human dermal fibroblasts = tested on: human dermal fibroblasts; parameters: method as in PMID 23320752; details: cited from earlier work
[6] = parameters: method as in PMID 25143811; details: stratum corneum, epidermis, dermis; cited from earlier work
collagen synthesis = tested on: collagen synthesis; parameters: method as in PMID 19268583; details: cited from earlier work
urokinase [7] = biological target: T3, urokinase; test: Amidolytic activity of urokinase (chromogenic substrate pyro-Glu-Gly-Arg-pNA); assay type: biochemical; details: amidolytic activity; Tris pH 8.8, 37 °C; IC50 by extrapolation using a linear plot; error 5%; read-out: IC50 Urokinase
Description: as §1, §2

fibroblast cells = test: DNA biosynthesis, [3H] thymidine incorporation in fibroblasts; assay type: cell-based, Human; details: for DNA biosynthesis: 24 h, ± 2
Description: In the radioactive method of DNA measurement in the liquid sample, the radioactive activity of the sample was measured. This technique involves mixing a radioactive material with a scintillation fluid/liquid (which contains a scintillator), resulting in photon emission. This emission is counted by a suitable detector.
To examine the effect of the studied compounds on DNA biosynthesis of fibroblast cells, they were plated in 24-well tissue culture dishes at 1 × 10^5 cells per well with 1 mL of growth medium. The plates were incubated after 48 h with the examined peptides and 0.5 μCi of [^3H] thymidine (6.7 Ci/mmol) at 37 °C. The final peptide concentrations were: 10 μM, 50 μM, and 100 μM. After 24 h incubation, the cells were rinsed with PBS three times and twice with 5% trichloroacetic acid. To measure the radioactivity incorporated into DNA, the cells were solubilized with 1 mL of 0.1 M sodium hydroxide containing 1% SDS and an addition of scintillation liquid (9 mL) (https://www.perkinelmer.com/pl/category/scintillation-cocktails). Radioactivity was determined in a scintillation counter, i.e., Liquid Scintillation Analyzer Tri-Carb 2810 TR (Perkin Elmer, Waltham, MA USA)) with Quanto Smart TM software (Perkin Elmer).

Fibroblasts = test: Collagen biosynthesis, 5[3H]-proline incorporation in fibroblasts; assay type: cell-based, Human; details: 24 h, ± 2
Description: In collagen biosynthesis assays cells were counted in a haemocytometer and incorporation of a radioactive precursor 5[^3H]-proline into collagen was measured. Total protein synthesis was calculated from the sum of radioactivity of collagenase-resistant proteins and collagen digest.
Fibroblasts were cultured in six-well plates until confluence. Then they were incubated for 24 h in growth medium in the absence or presence of the tested peptides and 5[^3H]-proline (5 µCi/mL, 28 Ci/mM). The final peptide concentrations were: 10 μM, 50 μM and 100 μM. In accordance with the method proposed by Peterkofsky and Diegelmann, incorporation of the radioactive precursor into collagen was determined by digesting the proteins with purified Clostridium histolyticum collagenase. Finally, the monolayers were washed with sterile 10mM PBS, pH 7.4 four times, and cell membranes were disrupted using a sonicator. Aliquots of the cell homogenate were removed for protein measurement using the BCA™ Protein Assay Kit (Pierce, Waltham, MA USA). The results are shown as combined values for cell plus medium fractions.

[8] = amidolytic activity, Tris pH 7.4, 37 °C, IC50 by extrapolation using a linear plot, error 5%, read-out: IC50 Plasmin

| Compound | IC50 (plasmin [1]; [8]) [µM] | cytotoxicity / cell growth effect on fibroblasts [2] | viability at 24 h, 1 µmol/L [3] [%] | viability at 24 h, 10 µmol/L [3] [%] | viability at 24 h, 100 µmol/L [3] [%] | IC50 (thrombin) [µM] | increase of collagen synthesis (collagen synthesis) | IC50 (urokinase [7]) [µM] | DNA biosynthesis (fibroblast cells; 10 µmol/L) | DNA biosynthesis (fibroblast cells; 50 µmol/L) | DNA biosynthesis (fibroblast cells; 100 µmol/L) | Collagen biosynthesis (Fibroblasts; 50 µmol/L) | Collagen biosynthesis (Fibroblasts; 100 µmol/L) | other results |
| --- | --- | --- | --- | --- | --- | --- | --- | --- | --- | --- | --- | --- | --- | --- |
| C[C@@H](O)[C@H](NC(=O)[C@H](CCCCN)NC(=O)CCCCC1CCSS1)C(=O)N[C@H](C(=O)N[C@@H](CCCCN)C(=O)N[C@@H](CO)C(=O)O)[C@@H](C)O (mixture of isomers) [Peptide 3, Lip-Lys-Thr-Thr-Lys-Ser-OH] | 470 ± 23 | did not exhibit fibroblast growth | 94 | 81 | 81 | 12800 ± 640 |  |  |  |  |  |  |  | increase of collagen biosynthesis (collagen biosynthesis): over 150% |
| N=C(N)c1ccc(CNC(=O)C(CCc2ccccc2)NC(=O)[C@@H](CO)NS(=O)(=O)Cc2ccccc2)cc1 (stereo partly drawn) [BSFAB, benzylsulfonyl-D-Ser-homoPhe-(4-amidinobenzylamide)] |  |  |  |  |  |  |  |  |  |  |  |  |  | Ki (plasmin [4]): 0.029 µM; inhibition of neutrophil elastase (neutrophil elastase): did not inhibit; inhibition of tryptase (tryptase): did not inhibit; Ki (urokinase [5]): 0.025 µM; inhibition of kallikrein 5 (kallikrein 5): did not inhibit; inhibition of kallikrein 7 (kallikrein 7): did not inhibit |
| CCCCCCCCCCCCCCCC(=O)N[C@@H](CCCCN)C(=O)N[C@H](C(=O)N[C@H](C(=O)N[C@@H](CCCCN)C(=O)N[C@@H](CO)C(=O)O)[C@@H](C)O)[C@@H](C)O [Peptide 4, Pal-Lys-Thr-Thr-Lys-Ser-OH, reference compound] (HELM PEPTIDE1{[CCCCCCCCCCCCCCCC(=O)[*:2]].K.T.T.K.S}$$$$V2.0) |  | did not exhibit fibroblast growth | 97 | 91 | 85 |  | over 150% |  |  |  |  |  |  | length of wrinkles, age spots, skin texture versus placebo cream (face wrinkles): markedly improved; collagen production (human dermal fibroblasts): stimulates collagen production in a concentration-dependent manner; retention in skin layers [6]: retained in different skin layers |
| Ac-RTTKS-OH [Peptide 26, Ac-Arg-Thr-Thr-Lys-Ser-OH] | 5450 ± 270 | exhibited cell growth effects; also recorded: showed proliferative effect; also recorded: exhibited the effect of cell growth | 112 | 137 | 150 | 810 ± 41 |  | 2360 ± 120 | 126 % of Control | 112 % of Control | 128 % of Control | 77 % of Control | 108 % of Control | DNA synthesis (fibroblast cells; 10, 50, 100 μM): increased DNA synthesis was observed at all concentrations; Collagen biosynthesis (Fibroblasts; 10 µmol/L): 166 % of Control |
| H-KTTKS-OH [Peptide 1, H-Lys-Thr-Thr-Lys-Ser-OH, reference compound] | 280 ± 14 | did not exhibit fibroblast growth | 95 | 82 | 80 | 7810 ± 390 | no such effect |  |  |  |  |  |  |  |
| H-KTTRS-NH2 [Peptide 13, H-Lys-Thr-Thr-Arg-Ser-NH2] | 720 ± 36 | exhibited cell growth effects; also recorded: showed proliferative effect; also recorded: exhibited the effect of cell growth | 121 | 139 | 145 | 4650 ± 233 |  | 17600 ± 880 | 84 % of Control | 86 % of Control | 74 % of Control | 155 % of Control | 49 % of Control | IC50 (plasmin [1]; converted from IC50 of Table 1, read-out: -logIC50 Plasmin (converted)): 708 µM |
